Reference: US10351827B2, “Method for differentiating induced pluripotent stem cells into renal proximal tubular cell-like cells” (priority 2013, dated 2019)
Read-outs that look alike come from different tables or passages of the source.

Test system: iPS(Foreskin)-4-derived d8 HPTC-like cells
[1] = 1 μg/ml, overnight (16 h), qPCR, normalized to vehicle control (=1), mean +/- s.d., n=3
[2] = 10 μg/ml, overnight (16 h), qPCR, normalized to vehicle control (=1), mean +/- s.d., n=3
[3] = 100 μg/ml, overnight (16 h), qPCR, normalized to vehicle control (=1), mean +/- s.d., n=3
[4] = 1,000 μg/ml, overnight (16 h), qPCR, normalized to vehicle control (=1), mean +/- s.d., n=3

| Structure (SMILES) | IL6 Expression Levels [1] | IL8 Expression Levels [1] | IL6 Expression Levels [2] | IL8 Expression Levels [2] | IL6 Expression Levels [3] | IL8 Expression Levels [3] | IL6 Expression Levels [4] | IL8 Expression Levels [4] | IL6 Expression Levels (human, 16 h, 1 μg/ml) | IL8 Expression Levels (human, 16 h, 1 μg/ml) | IL6 Expression Levels (human, 16 h, 10 μg/ml) | IL8 Expression Levels (human, 16 h, 10 μg/ml) | IL6 Expression Levels (human, 16 h, 100 μg/ml) | IL8 Expression Levels (human, 16 h, 100 μg/ml) | IL6 Expression Levels (human, 16 h, 1000 μg/ml) | IL8 Expression Levels (human, 16 h, 1000 μg/ml) |
| --- | --- | --- | --- | --- | --- | --- | --- | --- | --- | --- | --- | --- | --- | --- | --- | --- |
| [Bi+3].[Bi+3].[O-2].[O-2].[O-2] [Bismuth (III) oxide] | 1.2 ± 0.1 | 0.4 ± 0.1 | 1.3 ± 0.2 | 2.6 ± 0.2 | 2.1 ± 0.1 | 33.0 ± 1.6 | 3.6 ± 0.3 | 192.7 ± 18.4 |  |  |  |  |  |  |  |  |
| [Cl][Cd][Cl] [Cadmium chloride] | 3.6 ± 0.4 | 15.0 ± 0.8 | 10.9 ± 0.4 | 7.6 ± 0.4 | 10.3 ± 1.6 | 4.4 ± 0.6 | 11.8 ± 0.5 | 20.5 ± 8.3 |  |  |  |  |  |  |  |  |
| CCOc1ccc(NC(C)=O)cc1 [Phenacetin] |  |  |  |  |  |  |  |  | 7.2 ± 0.2 | 23.3 ± 3.1 | 7.0 ± 1.1 | 11.1 ± 0.8 | 5.3 ± 0.1 | 7.7 ± 4.7 | 0.7 ± 0.2 | 6.4 ± 2.1 |
| CN[C@H](CC(C)C)C(=O)N[C@H]1C(=O)N[C@@H](CC(N)=O)C(=O)N[C@H]2C(=O)N[C@H]3C(=O)N[C@H](C(=O)N[C@H](C(=O)O)c4cc(O)cc(O)c4-c4cc3ccc4O)[C@H](O)c3ccc(c(Cl)c3)Oc3cc2cc(c3O[C@@H]2O[C@H](CO)[C@@H](O)[C@H](O)[C@H]2O[C@H]2C[C@](C)(N)[C@H](O)[C@H](C)O2)Oc2ccc(cc2Cl)[C@H]1O [Vancomycin] | 1.5 ± 0.3 | 0.7 ± 0.0 | 1.4 ± 0.1 | 0.6 ± 0.2 | 1.4 ± 0.1 | 2.9 ± 0.2 | 3.1 ± 0.2 | 98.5 ± 4.5 |  |  |  |  |  |  |  |  |
| [Cl][Au] [Gold (I) chloride] | 1.2 ± 0.2 | 0.9 ± 0.2 | 1.2 ± 0.1 | 0.9 ± 0.1 | 2.9 ± 0.2 | 2.0 ± 0.0 | 23.3 ± 0.4 | 1.2 ± 0.2 |  |  |  |  |  |  |  |  |
| NC(=O)c1ncn([C@@H]2O[C@H](CO)[C@@H](O)[C@H]2O)n1 [Ribavirin] |  |  |  |  |  |  |  |  | 1.4 ± 0.1 | 1.1 ± 0.4 | 1.5 ± 0.1 | 0.5 ± 0.1 | 1.2 ± 0.3 | 0.2 ± 0.0 | 1.0 ± 0.1 | 0.2 ± 0.0 |
| [K+].[K+].[O]=[Cr](=[O])([O-])[O][Cr](=[O])(=[O])[O-] [Potassium dichromate] | 1.2 ± 0.4 | 0.5 ± 0.0 | 1.0 ± 0.0 | 0.7 ± 0.1 | 3.3 ± 0.3 | 0.8 ± 0.0 | 3.7 ± 0.4 | 1.2 ± 0.0 |  |  |  |  |  |  |  |  |
| CC(=O)Nc1ccc(O)cc1 [Acetaminophen] |  |  |  |  |  |  |  |  | 1.3 ± 0.0 | 0.8 ± 0.3 | 1.2 ± 0.1 | 1.2 ± 0.2 | 1.4 ± 0.2 | 0.5 ± 0.1 | 0.3 ± 0.1 | 0.1 ± 0.0 |
| C[C@H]1O[C@H](O[C@H]2[C@H](O)[C@@H](O)[C@@H](O[C@H]3[C@H](O)[C@@H](O)C(O)O[C@@H]3CO)O[C@@H]2CO)[C@H](O)[C@@H](O)[C@@H]1N[C@H]1C=C(CO)[C@@H](O)[C@H](O)[C@H]1O (stereo partly shown) [Acarbose] |  |  |  |  |  |  |  |  | 1.2 ± 0.1 | 0.5 ± 0.1 | 1.5 ± 0.3 | 0.6 ± 0.2 | 1.3 ± 0.2 | 0.4 ± 0.1 | 1.4 ± 0.4 | 1.6 ± 0.2 |
| NC[C@H]1O[C@H](O[C@H]2[C@H](O)[C@@H](O[C@H]3O[C@H](CO)[C@@H](O)[C@H](N)[C@H]3O)[C@H](N)C[C@@H]2N)[C@H](N)C[C@@H]1O [Tobramycin] |  |  |  |  |  |  |  |  | 1.3 ± 0.1 | 0.5 ± 0.1 | 1.3 ± 0.1 | 0.6 ± 0.1 | 1.4 ± 0.1 | 0.9 ± 0.3 | 2.7 ± 0.4 | 25.5 ± 1.5 |
| [Cl][Cu][Cl] [Copper (II) chloride] | 1.2 ± 0.1 | 7.2 ± 0.6 | 2.2 ± 0.2 | 67.1 ± 18.1 | 22.5 ± 2.2 | 58.2 ± 3.2 | 13.4 ± 0.0 |  |  |  |  |  |  |  |  |  |
| COc1ccc(C[C@H](N)C(=O)N[C@H]2[C@@H](O)[C@H](n3cnc4c(N(C)C)ncnc43)O[C@@H]2CO)cc1 [Puromycin] |  |  |  |  |  |  |  |  | 1.9 ± 0.2 | 0.8 ± 0.2 | 14.1 ± 1.2 | 255.7 ± 28.2 | 29.0 ± 1.2 | 3,284.1 ± 1,069.3 | 26.6 ± 4.3 | 3,852.3 ± 309.9 |
| CC(=O)[O-].CC(=O)[O-].[Pb+2] [Lead acetate] | 1.3 ± 0.3 | 0.4 ± 0.2 | 1.2 ± 0.3 | 1.3 ± 0.1 | 1.5 ± 0.1 | 5.0 ± 0.8 | 4.3 ± 0.8 | 29.4 ± 5.1 |  |  |  |  |  |  |  |  |
